In patent US9701646B2, “Small molecule inhibitors of PI3-kinase signaling” (Tufts University, priority 2013, dated 2017):
Read-outs that look alike come from different tables or passages of the source.

Columns and labels:
[1] = tested on: U87MG human glioblastoma cells; test: Cell viability of U87MG cells, ATP assay; type: cell-based; settings: for EC50: Homo sapiens, U-87 MG, 24 h
Experimental: U87MG human glioblastoma cells were maintained in culture at 37° C., 5% CO2, complete medium for 24 h in the presence of various final concentrations of YK-NCL-176, YK-NCL-177, YK-NCL-178, YK-NCL-179, YK-NCL-180, YK-NCL-183, YK-NCL-184, YK-NCL-185, YK-NCL-186, YK-NCL-187, YK-NCL-188, YK-NCL-189, YK-NCL-190, YK-NCL-191, YK-NCL-192, YK-NCL-193, YK-NCL-194, YK-NCL-195, YK-NCL-196, YK-NCL-197, NK-YCL-198, or YK-NCL-199, each in DMSO, with or without 1 μg/mL TRAIL. DMSO alone was used as a negative control. Following the incubation, cell viability was measured using an ATP assay.

[2] = Micellar drug release by dialysis; type: physicochemical; settings: 37° C.
Experimental: Drug-loaded micelles were analyzed for their in vitro drug release profile at 37° C. in 1×PBS pH 7.4 over 48 hrs. Micelles were prepared as described previously. 500 μL of drug-loaded micelles were aliquoted into Spectra/Pro® regenerated cellulose dialysis membranes with a MWCO of 1,000 Da and dialyzed against a large excess of 1×PBS pH 7.4. At predetermined times, dialysis bags were opened and aliquots of sample were taken and diluted with 200 μL acetonitrile. Drug concentration was determined by HPLC using previously described methods.

A2780 ovarian carcinoma = test: A2780 cell viability, CellTiter-Blue, free and micellar formulations; type: cell-based, human; settings: for cytotoxicity as free compound compared to DM-PIT-1: A2780, 24 h; for cytotoxicity on addition of TRAIL to the formulation: A2780, micellar formulation plus TRAIL
Experimental: Cell viability of A2780 ovarian carcinoma was measured using CellTiter-Blue® (Promega, Madison, Wis.) viability assay. Briefly, cells were seeded in 96-well plates according to proper cell densities (3,000-5,000 cells). After 24 h incubation in 5% CO2 at 37° C., cells were treated with formulations at various concentrations for 24 h in serum complete media. After 24 h treatment, media was removed, the wells were washed with serum complete media and replaced with 50 μL media and 10 μL CellTiter-Blue®. Cell viability was evaluated after 4 h of incubation at 37° C. at 5% CO2 by measuring the fluorescence (ex. 550 nm, em. 590 nm) using a Synergy HT multi-detection microplate reader (Biotek, Winooski, Vt.).

[3] = tested on: A2780 human ovarian cancer cells; test: Cell viability of A2780 cells, ATP assay; type: cell-based; settings: for cell viability in combination with TRAIL: versus compound alone; for EC50: Homo sapiens
Experimental: (§1) A2780 human ovarian cancer cells were maintained in culture at 37° C., 5% CO2, complete medium for 24 h in the presence of various final concentrations of DM-PIT-1, YK-NCL-176, YK-NCL-198, or NK-YCL-240, each in DMSO, with or without 1 μg/mL TRAIL. DMSO alone was used as a negative control. Following the incubation, cell viability was measured using an ATP assay.
as §1, with “YK-NCL-217, YK-NCL-218, NK-YCL-219, YK-NCL-220, YK-NCL-234,” for “YK-NCL-176, YK-NCL-198,”, “YK-NCL-241,” for “NK-YCL-240,”

[4] = tested on: T47D human breast cancer cells; test: Cell viability of T47D cells; type: cell-based
[5] = tested on: DU145 human prostate cancer cells; test: Cell viability of DU145 cells; type: cell-based
A2780 cells = test: In vitro wound closure (cell migration), A2780; type: cell-based, human; settings: A2780, up to 76 h
Experimental: A2780 cells and T47D cells were grown to confluence in separate cultures under conditions of 37° C., 5% CO2, and complete medium. At time zero, a pipette tip was dragged across the cells, producing a linear defect in the confluent layer of cells. Medium was then supplemented with various concentrations of DM-PIT-1, YK-NCL-176, or YK-NCL-240, or an equivalent volume of DMSO alone, and cells were maintained in culture for an additional 76 h. Linear defects were viewed with a microscope at 0, 21, 47, 69, and 76 h following addition of test agent, and the width of the defect was quantitated at each time point. This in vitro assay represents a model of wound closure.

Akt PH domain = Akt PH domain (Homo sapiens, UniProt P31749); test: Inhibition of Akt PH domain binding to PIP3; settings: in vitro
Chain of Akt PH domain (P31749 5-108 limits assumed): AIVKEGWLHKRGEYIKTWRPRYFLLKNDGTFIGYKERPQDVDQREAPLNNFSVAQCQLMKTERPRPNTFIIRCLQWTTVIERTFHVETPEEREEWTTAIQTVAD

[6] = mouse, in vivo
[7] = Micellar drug loading by reverse phase HPLC; type: physicochemical; settings: PEG-PE micelles, PEG-PE 13.07 mg/mL, n = 3 with SD
Experimental: Drug incorporation efficiency was measured by reverse phase HPLC using an Xbridge C18 ([…]) column (Waters Corporation, Milford, Mass.) on a Hitachi Elite LaChrom HPLC with autosampler (Pleasanton, Calif.). The HPLC method was modified from previously published method. Skidan I et al., J Chromatogr B Analyt Technol Biomed Life Sci 879:1610-1616 (2011). The mobile phase consisted of either 70:30 acetonitrile:water (DM-PIT-1) or 60:40 acetonitrile:water (NCL-176, NCL-179, NCL-198, NCL-240) with a flow rate of 1 mL/min. Detection of drug was performed at a wavelength corresponding to a peak on the absorption spectrum (DM-PIT-1: 320 nm, NCL-176: 260 nm, NCL-179: 295 nm, NCL-198: 295 nm, NCL-240: 300 nm). Sample injections were kept constant at 50 μL and the sample runtime was 10 min. Concentration of drug was determined by measuring the area under curve of the peak. Standard curves of stock drug in acetonitrile from concentrations of 10 μg/mL to 15 ng/mL were used to determine incorporation of drug in micelles. 5 μL of dialyzed drug-loaded micelles were diluted in 495 μL acetonitrile to destroy micelles.

[8] = in DMSO, without TRAIL, read-out: EC50 alone
[9] = with 1 μg/mL TRAIL, read-out: EC50 with TRAIL
[10] = A2780, 24 h, with 1 μg/mL TRAIL
[11] = A2780, 24 h, in DMSO, without TRAIL, read-out: EC50 alone
[12] = A2780, 24 h, with 1 μg/mL TRAIL, read-out: EC50 with TRAIL

| EC50 [1, 8] [µM] | EC50 [1, 9] [µM] | drug released from micelles ([2]; 1×PBS pH 7.4, after 48 h) [%] | Loading Eff. [7] | drug released from micelles ([2]; 1×PBS pH 7.4, at 10 h) | Molecule | cytotoxicity as free compound compared to DM-PIT-1 (A2780 ovarian carcinoma) | concentration at which cell viability was reduced by at least 50 percent ([3]; A2780, 24 h, alone) [µM] | cell viability in combination with TRAIL [3, 10] | EC50 [3, 11] [µM] | EC50 [3, 12] [µM] | inhibition of cell migration (wound closure) (A2780 cells) | cytotoxicity on addition of TRAIL to the formulation (A2780 ovarian carcinoma) | other results |
| --- | --- | --- | --- | --- | --- | --- | --- | --- | --- | --- | --- | --- | --- |
| 36.7 | 20.4 | 40 |  |  | Oc1ccc(Cl)cc1-n1cc(C(O)(c2ccccc2)c2cn(-c3cc(Cl)ccc3O)nn2)nn1 [YK-NCL-179, 2,2′-(4,4′-(hydroxy(phenyl)methylene)bis(1H-1,2,3-triazole-4,1-diyl))bis(4-chlorophenol)] | improved cytotoxicity properties |  |  |  |  |  |  |  |
| 34.8 | 18.8 | 40 |  |  | Oc1ccc(Cl)cc1-n1cc(C(O)(c2cc(C(F)(F)F)cc(C(F)(F)F)c2)c2cn(-c3cc(Cl)ccc3O)nn2)nn1 [YK-NCL-198, 2,2′-(((3,5-Bis(trifluoromethyl)phenyl)(hydroxy)methylene)bis(1H-1,2,3-triazole-4,1-diyl))bis(4-chlorophenol)] | improved cytotoxicity properties | 12.5 | further reduced cell viability |  |  |  |  | melting point: 214 °C |
|  |  |  | slightly lower loading | completely released | Cc1cc(C)cc(C(=O)NC(=S)Nc2cc([N+](=O)[O-])ccc2O)c1 [DM-PIT-1, N-[(2-hydroxy-5-nitrophenyl)amino]carbonothioyl-3,5-dimethylbenzamide, reference compound] |  | 25 | further reduced cell viability | 30.5 | 18.7 |  |  |  |
| 104 | 51.6 |  | slightly lower loading | completely released | O=C(c1ccccc1)c1cn(-c2cc(Cl)ccc2O)nn1 [YK-NCL-176, (1-(5-Chloro-2-hydroxyphenyl)-1H-1,2,3-triazol-4-yl)(phenyl)methanone] |  | 25 | further reduced cell viability |  |  | significantly more effectively than DM-PIT-1 | markedly increased cytotoxicity |  |
|  |  |  |  |  | TRAIL: Tumor necrosis factor (TNF)-related apoptosis-inducing ligand; recombinant His6-tagged human TRAIL produced in E. coli (protein, UniProt P50591 1-281, looked up, His6 tag, Tumor necrosis factor (TNF)-related apoptosis-inducing ligand; recombinant His6-tagged human TRAIL produced in E. coli) Tumor necrosis factor ligand …: MAMMEVQGGPSLGQTCVLIVIFTVLLQSLCVAVTYVYFTNELKQMQDKYSKSGIACFLKEDDSYWDPNDEESMNSPCWQVKWQLRQLVRKMILRTSEETISTVQEKQQNISPLVRERGPQRVAAHITGTRGRSNTLSSPNSKNEKALGRKINSWESSRSGHSFLSNLHLRNGELVIHEKGFYYIYSQTYFRFQEEIKENTKNDKQMVQYIYKYTSYPDPILLMKSARNSCWSKDAEYGLYSIYQGGIFELKENDRIFVSVTNEHLIDMDHEASFFGAFLVG |  |  |  |  |  |  |  | effect on cell viability ([3]; A2780, 24 h, alone, 1 μg/mL): essentially no effect on cell viability |

| Molecule | EC50 [1, 8] [µM] | EC50 [1, 9] [µM] | drug released from micelles ([2]; 1×PBS pH 7.4, after 48 h) [%] | Loading Eff. [7] | drug released from micelles ([2]; 1×PBS pH 7.4, at 10 h) | cytotoxicity as free compound compared to DM-PIT-1 (A2780 ovarian carcinoma) | concentration at which cell viability was reduced by at least 50 percent ([3]; A2780, 24 h, alone) [µM] | cell viability in combination with TRAIL [3, 10] | EC50 [3, 11] [µM] | EC50 [3, 12] [µM] | inhibition of cell migration (wound closure) (A2780 cells) | cytotoxicity on addition of TRAIL to the formulation (A2780 ovarian carcinoma) | other results |
| --- | --- | --- | --- | --- | --- | --- | --- | --- | --- | --- | --- | --- | --- |
| O=C(c1cc(C(F)(F)F)cc(C(F)(F)F)c1)c1cn(-c2cc(Cl)ccc2O)nn1 [YK-NCL-240, (3,5-Bis(trifluoromethyl)phenyl)(1-(5-chloro-2-hydroxyphenyl)-1H-1,2,3-triazol-4-yl)methanone] |  |  | 60 |  |  | improved cytotoxicity properties | < 6.25 | further reduced cell viability | 1.85 | 1.11 | significantly more effectively than either DM-PIT-1 or YK-NCL-176 | markedly increased cytotoxicity | improvement of EC50 compared to DM-PIT-1 alone ([3]; A2780, alone): 15 fold; improvement of EC50 compared to the combination of DM-PIT-1 and TRAIL ([3]; A2780, with TRAIL): 20 fold; effect of combination with TRAIL on cell viability ([1]; 1 μg/mL TRAIL): synergistic effect; in vitro cell viability ([1]; in DMSO, alone): reduce in vitro cell viability; effect of combination with TRAIL on cell viability ([4]; 1 μg/mL TRAIL): synergistic effect; in vitro cell viability ([4]; in DMSO, alone): reduce in vitro cell viability; effect of combination with TRAIL on cell viability ([5]; DU145, 1 μg/mL TRAIL): synergistic effect; in vitro cell viability ([5]; DU145, in DMSO, alone): reduce in vitro cell viability; binding of the Akt PH domain to PIP3 (Akt PH domain): robustly inhibited; non-toxic dose [6]: up to 50 mg/kg |
